Measurements from patent US7189754B2, “Pyrrolidine ester derivatives with oxytocin modulating activity” (Applied Research Systems ARS Holding NV, priority 2001, dated 2007).
pIC50: −log10 of the molar value.

Tests used:
ratOT-R = biological target: T1, ratOT-R (Rattus norvegicus, UniProt P70536); assay: Functional assay No. 2: inhibition of IP3-synthesis in HEK/EBNA-OTR cells; type: cell-based; details: oxytocin 10 nM, [3H]-inositol
T1 construct: expressed in transfected cells; host or cells: HEK/EBNA
T1 sequence (P70536 1-388): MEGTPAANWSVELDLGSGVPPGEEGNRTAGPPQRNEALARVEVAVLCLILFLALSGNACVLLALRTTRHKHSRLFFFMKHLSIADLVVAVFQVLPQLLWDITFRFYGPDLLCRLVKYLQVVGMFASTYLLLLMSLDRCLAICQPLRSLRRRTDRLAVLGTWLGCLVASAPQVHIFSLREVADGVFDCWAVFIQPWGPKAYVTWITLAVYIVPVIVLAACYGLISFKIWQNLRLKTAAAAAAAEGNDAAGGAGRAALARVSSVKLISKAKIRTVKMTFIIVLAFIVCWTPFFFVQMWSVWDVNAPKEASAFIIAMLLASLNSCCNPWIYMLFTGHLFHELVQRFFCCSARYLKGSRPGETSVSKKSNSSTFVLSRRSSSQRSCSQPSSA
Excerpt: c) Functional Assay No. 2: Inhibition of IP3 (Inositol Tri-Phosphate)-Synthesis in HEK/EBNA-OTR cells
The interaction of OT on the OT-receptor leads to the IP3 synthesis, IP3 being a second messenger for the Ca^2+ release from sarcoplasmic reticulum, involved in the uterine contraction triggering process (see Mitchell, B. F. and Schmid, B. J. Soc. Gynecol. Invest. 2001, 8,122–33).
This assay can be used to show the inhibition of the OT/OT-R mediated IP3 synthesis by using test compounds of formula (I).
Stimulation of the cells: HEK/EBNA OTR (rat or human) cells are plated out-into costar 12-well plates, and equilibrated for 15–24 h with 4 μCi/ml radiolabelled [^3H]-Inositol with 1% FCS (0.5 ml/well) and without inositol supplement. The medium containing the label is aspirated. […]
The amount of the radiolabelled IP3 may be determined through the ensuing work-up. […]
Elution of total IP's: Elution is achieved using 3 ml 1M ammonium formate/0.1M formic acid. […] The amount of [^3H]-IP3 is determined by a scintillating counter.
The ability of compounds of formula(I) to effectively antagonize oxytocin-induced IP3synthesis mediated by the oxytocin receptor, can be assessed using the above described in vitro biological assay.

[1] = system: oxytocin-induced uterine contractions in the rat; assay: In vivo model for inhibition of uterine contractions (oxytocin-induced, anaesthetised DES-treated rats); details: intravenous, PEG400/saline 50:50, 5 ml/kg infusion
Procedure: d) In Vivo Model for Inhibtion of Uterine Contractions
The assay evaluates the biological effect of tested compounds in an in vivo model of preterm labor, premature birth.
Non-pregnant Charles River CD (SD) BR female rats (9–10 weeks old, 200–250 g) were treated at 18 and 24 hours before the experiment with 250 μg/kg, i.p. diethylstilbestrol (DES). For the assay, the animal was anaesthetised with urethane (1.75 g/kg, i.p.) and placed on a homeothermic operating table. The trachea was isolated and cannulated with a suitable polyethylene (PE) tubing. A midline incision at the hypogastrium level was made and one uterine horn exposed, its cephalic end cannulated with a PE240 tubing and, after filling the internal cavity with 0.2 ml of sterile physiological saline, connected to a “Gemini” amplifying/recording system via a P23ID Gould Statham pressure transducer.
One jugular vein was isolated, cannulated with a PE60 tubing and connected to a butterfly needle to provide an i.v. route of administration of the test compounds via a dispensing syringe.
In the case of intraduodenal administration of the test compounds, the duodenum can be isolated and similarly cannulated through a small incision in its wall.
One carotid artery was also isolated and cannulated with PE60 catheter and connected to a suitable syringe for blood sample collection.
After a stabilization period and throughout the experiment, the same dose of oxytocin was repeatedly injected intravenously at 30-min intervals. When reproducible contractile responses of the uterus to the same OT stimulus (selected dose of oxytocin) were obtained, the dose of the test compound or of the reference (vehicle) was administered. […]
The contractile response of the uterus to oxytocin was quantified by measuring the intrauterine pressure and the number of contractions. The effect of the reference and test compounds was evaluated by comparing pre- and post-treatment pressure values. […]
The activities of the pyrrolidine derivatives of formula (I) may be assessed using the above described in vivo biological assay. […]

pIC50 (ratOT-R) | melting point [°C] | Compound | % Reduction of Uterine Contraction ([1]; dose 1 mg/kg) [%] | % Reduction of Uterine Contraction ([1]; dose 3 mg/kg) [%] | % Reduction of Uterine Contraction ([1]; dose 10 mg/kg) [%]
7.11 |  | CO/N=C1\C[C@@H](C(=O)OC)N(C(=O)c2ccc(-c3ccccc3C)cc2)C1 [Methyl (2S,4E)-4-(methoxyimino)-1-[(2′-methyl[1,1′-biphenyl]-4-yl)carbonyl]-2-pyrrolidinecarboxylate] |  |  | 
7.64 | 40 | CO/N=C1/C[C@@H](C(=O)OC)N(C(=O)c2ccc(-c3ccccc3C)cc2)C1 [Methyl (2S,4Z)-4-(methoxyimino)-1-[(2′-methyl[1,1′-biphenyl]-4-yl)carbonyl]-2-pyrrolidinecarboxylate] | −35.4 ± 7.0 | −49.0 ± 6.5 | −51.8 ± 9.2
